Counter-ions that a name gives are not always drawn.

By melting point is commonly meant the temperature, or range, at which the solid turns liquid. In turn, `c1cc2c(-c3cn[nH]c3)ncnn2c1` (as salt: HCl) [Compound 13c, 4-(1H-Pyrazol-4-yl)pyrrolo[1,2-f][1,2,4]triazine] displayed a melting point of 245.8 °C.

For the origin of these results see patent publication US20130071415A1, “Heterocyclic Compounds as Janus Kinase Inhibitors” (BioCryst Pharmaceuticals, Inc., priority 2010, published 2013).
